Experimental data: patent US20140005163A1 (NOVARTIS AG, priority 2010, published 2014)
In brackets after ≈: the same amount, converted by molar mass. Several values for one entry are separate records, joined by “and”; a condition that tells them apart may be missing. Identical values can stand only once.

How the values were obtained:
Solubility at pH 6.8 = type: physicochemical; conditions: pH 6.8, aqueous buffer, thermodynamic from solid; read-out: solubility
Method in brief: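 Following the procedure of Zhou et al. (2007), compound solubility was determined at pH 6.8.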

PI3K gamma = target: T1, PI3K gamma (Homo sapiens, UniProt P48736); test: PI3K gamma kinase assay (Kinase-Glo luminescence); type: biochemical
T1 construct: His tag (C); made in house; host or cells: baculovirus (pVL1393); Tn5 or TiniPro insect cells; construct from Roger Williams lab, MRC LMB
Method in brief: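 PI3Kγ (150 nM) reaction run 120 min at room temperature with phosphatidylinositol substrate (10 μg/mL) and ATP (1 μM) in Tris pH 7.5 buffer containing MgCl2, NaCl, CHAPS and DTT. Remaining ATP detected by Kinase-Glo luminescence; 8 concentrations per compound, IC50 from 4-parameter curve fitting.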

mTOR = target: T2, mTOR (Homo sapiens, UniProt P42345); test: Biochemical assay for m-TOR by TR-FRET; conditions: 8 μM ATP, 400 nM GFP-4EBP1, 0.5 nM mTOR
T2 construct: purchased Invitrogen Corporation (Carlsbad/CA, USA) PV4753
Method in brief: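 TR-FRET read-out: Tb-labelled anti-p4EBP1 pThr46 antibody (0.5 nM), added in EDTA to stop the reaction, detects phosphorylated GFP-4EBP1 after 15 min. Kinase step used 0.5 nM mTOR, 400 nM substrate, 8 μM ATP, MnCl2-containing HEPES buffer pH 7.5, room temperature.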

[1] = test system: S6 Ribosomal Protein phosphorylation Ser235/236 in TSC1 null mouse embryo fibroblast (MEF) cells; test: Reverse protein array assay, S6 Ribosomal Protein phosphorylation Ser235/236 in TSC1 null MEF cells; type: cell-based; conditions: 1 h, pS6 ribosomal protein Ser235/236, 60 minutes incubation, read-out: p-S6 IC50
Method in brief: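 TSC1−/− MEFs, seeded and held ≥20 h at 37 °C/5% CO2, were exposed to 8-step serial compound dilutions (0.02% DMSO final; DMSO vehicle control) for 60 min at 37 °C. Cells were then lysed on ice for 10 min and lysates spotted onto reverse protein array chips.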

T2 sequence (P42345 1360-2549 limits assumed): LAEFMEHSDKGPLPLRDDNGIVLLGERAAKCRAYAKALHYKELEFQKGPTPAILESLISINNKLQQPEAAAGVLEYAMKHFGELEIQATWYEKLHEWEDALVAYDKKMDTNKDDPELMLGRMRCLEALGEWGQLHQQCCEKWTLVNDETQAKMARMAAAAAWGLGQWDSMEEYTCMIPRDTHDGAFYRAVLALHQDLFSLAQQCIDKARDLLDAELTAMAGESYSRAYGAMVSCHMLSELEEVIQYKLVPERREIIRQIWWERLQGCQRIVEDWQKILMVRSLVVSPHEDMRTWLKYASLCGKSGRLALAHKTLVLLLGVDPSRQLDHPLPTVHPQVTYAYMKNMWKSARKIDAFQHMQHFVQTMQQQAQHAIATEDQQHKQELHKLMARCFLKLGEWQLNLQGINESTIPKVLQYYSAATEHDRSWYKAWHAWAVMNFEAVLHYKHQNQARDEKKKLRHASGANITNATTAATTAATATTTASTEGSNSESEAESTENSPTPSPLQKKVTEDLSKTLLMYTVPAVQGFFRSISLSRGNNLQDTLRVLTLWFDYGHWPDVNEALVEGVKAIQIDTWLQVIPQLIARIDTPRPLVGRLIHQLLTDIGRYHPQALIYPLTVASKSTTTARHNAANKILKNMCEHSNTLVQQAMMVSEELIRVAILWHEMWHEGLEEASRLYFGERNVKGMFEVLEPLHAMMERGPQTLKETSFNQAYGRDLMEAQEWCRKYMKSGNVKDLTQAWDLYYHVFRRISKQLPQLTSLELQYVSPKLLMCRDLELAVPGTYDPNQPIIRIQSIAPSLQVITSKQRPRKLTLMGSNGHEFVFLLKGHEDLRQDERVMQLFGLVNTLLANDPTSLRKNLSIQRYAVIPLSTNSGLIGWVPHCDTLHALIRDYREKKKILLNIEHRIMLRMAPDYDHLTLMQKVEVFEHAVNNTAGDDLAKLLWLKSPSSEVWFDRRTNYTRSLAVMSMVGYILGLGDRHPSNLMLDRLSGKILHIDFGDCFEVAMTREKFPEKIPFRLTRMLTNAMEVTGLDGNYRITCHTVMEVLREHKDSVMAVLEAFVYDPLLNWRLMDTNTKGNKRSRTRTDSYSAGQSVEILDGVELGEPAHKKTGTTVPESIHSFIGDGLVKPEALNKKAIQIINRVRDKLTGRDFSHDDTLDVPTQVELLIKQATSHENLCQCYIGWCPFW
T1 sequence (P48736 144-1102 limits assumed): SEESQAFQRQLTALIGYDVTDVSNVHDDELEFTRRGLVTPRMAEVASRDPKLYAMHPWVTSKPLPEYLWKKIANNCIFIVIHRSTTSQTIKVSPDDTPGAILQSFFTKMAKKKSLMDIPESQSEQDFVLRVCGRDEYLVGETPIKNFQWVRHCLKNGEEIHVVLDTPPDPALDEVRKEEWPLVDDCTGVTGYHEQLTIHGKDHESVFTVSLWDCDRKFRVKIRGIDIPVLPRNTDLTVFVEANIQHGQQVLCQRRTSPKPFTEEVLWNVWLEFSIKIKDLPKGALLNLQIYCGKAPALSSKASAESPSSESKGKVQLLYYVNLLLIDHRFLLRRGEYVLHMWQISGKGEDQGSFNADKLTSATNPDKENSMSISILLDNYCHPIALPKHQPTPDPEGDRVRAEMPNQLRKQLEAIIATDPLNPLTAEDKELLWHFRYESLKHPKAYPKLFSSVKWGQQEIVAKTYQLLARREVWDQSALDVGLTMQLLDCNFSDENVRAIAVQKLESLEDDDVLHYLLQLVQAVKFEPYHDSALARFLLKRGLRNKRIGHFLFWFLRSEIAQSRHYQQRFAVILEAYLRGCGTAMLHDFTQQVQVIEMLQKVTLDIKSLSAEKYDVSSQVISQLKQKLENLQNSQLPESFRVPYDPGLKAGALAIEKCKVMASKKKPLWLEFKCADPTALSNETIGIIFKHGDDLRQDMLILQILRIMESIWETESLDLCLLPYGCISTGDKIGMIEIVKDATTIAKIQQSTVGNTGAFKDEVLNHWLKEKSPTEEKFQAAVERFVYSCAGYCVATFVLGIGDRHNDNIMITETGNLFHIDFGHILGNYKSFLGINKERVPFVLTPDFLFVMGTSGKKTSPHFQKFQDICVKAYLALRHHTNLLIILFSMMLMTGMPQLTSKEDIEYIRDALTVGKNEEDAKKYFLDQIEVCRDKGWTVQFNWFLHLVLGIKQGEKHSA

Row | SMILES | solubility (Solubility at pH 6.8) | IC50 (PI3K gamma) | IC50 (mTOR) | IC50 [1]
1 | COc1ccc(-c2ccc3ncc4c(c3c2)n(-c2c(C)nn(C)c2C)c(=O)n4C)cn1 [Example 2.4, 8-(6-Methoxy-pyridin-3-yl)-3-methyl-1-(1,3,5-trimethyl-1H-pyrazol-4-yl)-1,3-dihydro-imidazo[4,5-c]quinolin-2-one] | 50 µg/mL (≈ 121 µM) | 0.199 µM | 0.448 µM | –
2 | CCOc1ccc(-c2ccc3ncc4c(c3c2)n(-c2cn(C)nc2C)c(=O)n4C)cn1 [Example 3.1, 1-(1,3-Dimethyl-1H-pyrazol-4-yl)-8-(6-ethoxy-pyridin-3-yl)-3-methyl-1,3-dihydro-imidazo[4,5-c]quinolin-2-one] | 15 µg/mL (≈ 36.2 µM) | 0.246 µM | 0.011 µM | 0.04 µM
3 | CCOc1ccc(-c2ccc3ncc4c(c3c2)n(-c2cn(CC(=O)N3CCOCC3)nc2C)c(=O)n4C)cn1 [Example 3.10, 8-(6-Ethoxy-pyridin-3-yl)-3-methyl-1-[3-methyl-1-(2-morpholin-4-yl-2-oxo-ethyl)-1H-pyrazol-4-yl]-1,3-dihydro-imidazo[4,5-c]quinolin-2-one] | 26 µg/mL (≈ 49.3 µM) | 0.867 µM | 0.018 µM | 0.01 µM
4 | CCn1cc(-n2c(=O)n(C)c3cnc4ccc(-c5ccc(N(C)C)nc5)cc4c32)c(C)n1 [Example 4.2, 8-(6-Dimethylamino-pyridin-3-yl)-1-(1-ethyl-3-methyl-1H-pyrazol-4-yl)-3-methyl-1,3-dihydro-imidazo[4,5-c]quinolin-2-one] | 7 µg/mL (≈ 16.4 µM) | 0.242 µM | 0.015 µM | 0.007 µM
5 | Cc1nn(C)c(C)c1-n1c(=O)n(C)c2cnc3ccc(-c4ccc(N(C)C)nc4)cc3c21 [Example 4.3, 8-(6-Dimethylamino-pyridin-3-yl)-3-methyl-1-(1,3,5-trimethyl-1H-pyrazol-4-yl)-1,3-dihydro-imidazo[4,5-c]quinolin-2-one] | 71 µg/mL (≈ 166 µM) | 0.142 µM | 0.543 µM | –
6 | Cc1nn(C(C)C)cc1-n1c(=O)n(C)c2cnc3ccc(-c4ccc(N5CCC5)nc4)cc3c21 [Example 5.2, 8-(6-Azetidin-1-yl-pyridin-3-yl)-1-(1-isopropyl-3-methyl-1H-pyrazol-4-yl)-3-methyl-1,3-dihydro-imidazo[4,5-c]quinolin-2-one] | 7 µg/mL (≈ 15.4 µM) | 0.227 µM | 0.013 µM | 0.005 µM
7 | Cc1nn(C)cc1-n1c(=O)n(C)c2cnc3ccc(-c4cnc(N(C)C)nc4)cc3c21 [Example 6.2, 8-(2-Dimethylamino-pyrimidin-5-yl)-1-(1,3-dimethyl-1H-pyrazol-4-yl)-3-methyl-1,3-dihydro-imidazo[4,5-c]quinolin-2-one] | 41 µg/mL (≈ 98.9 µM) | 0.319 µM | 0.043 µM | 0.008 µM
8 | Cc1ccc(-c2ccc3ncc4c(c3c2)n(-c2cn(C)nc2C)c(=O)n4C)cn1 [Example 7.2, 1-(1,3-Dimethyl-1H-pyrazol-4-yl)-3-methyl-8-(6-methyl-pyridin-3-yl)-1,3-dihydro-imidazo[4,5-c]quinolin-2-one] | 9 µg/mL (≈ 23.4 µM) | 0.191 µM | 0.034 µM | 0.0135 µM
9 | COc1cncc(-c2ccc3ncc4c(c3c2)n(-c2cn(C)nc2C)c(=O)n4C)c1 [Example 12, 1-(1,3-Dimethyl-1H-pyrazol-4-yl)-8-(5-methoxy-pyridin-3-yl)-3-methyl-1,3-dihydro-imidazo[4,5-c]quinolin-2-one] | 39 µg/mL (≈ 97.4 µM) | 0.092 µM | 0.017 µM | 0.007 µM
10 | CNC(=O)c1ccc(-c2ccc3ncc4c(c3c2)n(-c2cn(C)nc2C)c(=O)n4C)cn1 [Example 15.1, 5-[1-(1,3-Dimethyl-1H-pyrazol-4-yl)-3-methyl-2-oxo-2,3-dihydro-1H-imidazo[4,5-c]quinolin-8-yl]-pyridine-2-carboxylic acid methylamide] | 10 µg/mL (≈ 23.4 µM) | 0.528 µM | 0.013 µM | 0.011 µM
11 | Cc1nn(C(C)C)cc1-n1c(=O)n(C)c2cnc3ccc(-c4ccc(CO)nc4)cc3c21 [Example 16.3, 8-(6-hydroxymethyl-pyridin-3-yl)-1-(1-isopropyl-3-methyl-1H-pyrazol-4-yl)-3-methyl-1,3-dihydro-imidazo[4,5-c]quinolin-2-one] | > 428 µg/mL | 0.408 µM and 0.359 µM | 0.045 µM | 0.061 µM
12 | CCn1cc(-n2c(=O)n(C)c3cnc4ccc(-c5cnc(OC)nc5)cc4c32)c(C)n1 [Example 17.1, 1-(1-Ethyl-3-methyl-1H-pyrazol-4-yl)-8-(2-methoxy-pyrimidin-5-yl)-3-methyl-1,3-dihydro-imidazo[4,5-c]quinolin-2-one] | 81 µg/mL (≈ 195 µM) | 0.386 µM | 0.059 µM | 0.087 µM
13 | CCOc1ccc(-c2ccc3ncc4c(c3c2)n(-c2c(C)nn(C)c2C)c(=O)n4C)cc1OC [Example 29.2, 8-(4-Ethoxy-3-methoxy-phenyl)-3-methyl-1-(1,3,5-trimethyl-1H-pyrazol-4-yl)-1,3-dihydro-midazo[4,5-c]quinolin-2-one] | 7 µg/mL (≈ 15.3 µM) | 0.145 µM | 0.778 µM | –
14 | Cc1nn(C)c(C)c1-n1c(=O)n(C)c2cnc3ccc(-c4cccc(O)c4)cc3c21 [Example 32.2, 8-(3-Hydroxy-phenyl)-3-methyl-1-(1,3,5-trimethyl-1H-pyrazol-4-yl)-1,3-dihydro-imidazo[4,5-c]quinolin-2-one] | 194 µg/mL (≈ 486 µM) | 0.16 µM | – | 0.558 µM
15 | COCCn1c(=O)n(C)c2ncc(-c3ccc4ncc5c(c4c3)n(-c3cn(C)nc3C)c(=O)n5C)cc21 [Example 69, 1-(1,3-Dimethyl-1H-pyrazol-4-yl)-8-[1-(2-methoxy-ethyl)-3-methyl-2-oxo-2,3-dihydro-1H-imidazo[4,5-b]pyridin-6-yl]-3-methyl-1,3-dihydro-imidazo[4,5-c]quinolin-2-one] | 3 µg/mL (≈ 6.02 µM) | 0.646 µM | 0.639 µM | –
16 | CCn1cc(-n2c(=O)n(C)c3cnc4ccc(-c5cncc(C(C)(C)O)c5)cc4c32)c(C)n1 [Example 215.4, 1-(1-Ethyl-3-methyl-1H-pyrazol-4-yl)-8-[5-(1-hydroxy-1-methyl-ethyl)-pyridin-3-yl]-3-methyl-1,3-dihydro-imidazo[4,5-c]quinolin-2-one] | > 443 µg/mL | – | 0.013 µM | < 0.0005 µM
17 | CNC(=O)c1cc(-c2ccc3ncc4c(c3c2)n(-c2cn(C)nc2C)c(=O)n4C)cnc1N [Example 224.1, 2-Amino-5-[1-(1,3-dimethyl-1H-pyrazol-4-yl)-3-methyl-2-oxo-2,3-dihydro-1H-imidazo[4,5-c]quinolin-8-yl]-N-methyl-nicotinamide] | 5 µg/mL (≈ 11.3 µM) | – | 0.034 µM | 0.003 µM
18 | Cc1nn(C)cc1-n1c(=O)n(C)c2cnc3ccc(-c4cnc5c(c4)C(C)(C)C(=O)N5C)cc3c21 [Example 233, 1-(1,3-Dimethyl-1H-pyrazol-4-yl)-3-methyl-8-(1,3,3-trimethyl-2-oxo-2,3-dihydro-1H-pyrrolo[2,3-b]pyridin-5-yl)-1,3-dihydro-imidazo[4,5-c]quinolin-2-one] | 11 µg/mL (≈ 23.5 µM) | – | 0.064 µM | 0.003 µM
19 | CCn1cc(-n2c(=O)n(C)c3cnc4ccc(-c5cnc(OC)nc5OC)cc4c32)c(C)n1 [Example 234.1, 8-(2,4-Dimethoxy-pyrimidin-5-yl)-1-(1-ethyl-3-methyl-1H-pyrazol-4-yl)-3-methyl-1,3-dihydro-imidazo[4,5-c]quinolin-2-one] | 58 µg/mL (≈ 130 µM) | – | 0.014 µM | 0.009 µM
20 | COC(C)(C)c1cncc(-c2ccc3ncc4c(c3c2)n(-c2cn(C)nc2C)c(=O)n4C)c1 [Example 239, 1-(1,3-Dimethyl-1H-pyrazol-4-yl)-8-[5-(1-methoxy-1-methyl-ethyl)-pyridin-3-yl]-3-methyl-1,3-dihydro-imidazo[4,5-c]quinolin-2-one] | 125 µg/mL (≈ 282 µM) | – | 0.049 µM | 0.001 µM
21 | CCNC(=O)c1cc(-c2ccc3ncc4c(c3c2)n(-c2cn(C)nc2C)c(=O)n4C)cnc1NC [Example 242.1, 5-[1-(1,3-Dimethyl-1H-pyrazol-4-yl)-3-methyl-2-oxo-2,3-dihydro-1H-imidazo[4,5-c]quinolin-8-yl]-N-ethyl-2-methylamino-nicotinamide] | 5 µg/mL (≈ 10.6 µM) | – | 0.058 µM | 0.002 µM
22 | CCOc1cc(-c2ccc3ncc4c(c3c2)n(-c2cn(C)nc2C)c(=O)n4C)cnc1CO [Example 243, 1-(1,3-Dimethyl-1H-pyrazol-4-yl)-8-(5-ethoxy-6-hydroxymethyl-pyridin-3-yl)-3-methyl-1,3-dihydro-imidazo[4,5-c]quinolin-2-one] | 43 µg/mL (≈ 96.7 µM) | – | 0.031 µM | 0.004 µM
23 | COCCOc1cc(-c2ccc3ncc4c(c3c2)n(-c2cn(C)nc2C)c(=O)n4C)cnc1CO [Example 244, 1-(1,3-Dimethyl-1H-pyrazol-4-yl)-8-[6-hydroxymethyl-5-(2-methoxy-ethoxy)-pyridin-3-yl]-3-methyl-1,3-dihydro-imidazo[4,5-c]quinolin-2-one] | 92 µg/mL (≈ 194 µM) | – | 0.079 µM | 0.025 µM
